# Experimental data: patent publication US8435957B2, “Use of lignan compound for anti-wrinkle treatment” (Biocare Co., Ltd., priority 2007, dated 2013)
# How the values were obtained:
# human normal fibroblasts = assay: MTT assay, cell proliferation effect in fibroblasts; type: cell-based; conditions: 48 h serum-free culture, untreated medium as control
# Description: In order to examine a cell proliferation effect proving the effect of reducing skin wrinkles, an MTT assay (3-(4,5-dimethylthiazol-2-yl)-2,5-diphenyl tetrazolium bromide reduction method) was carried out using fibroblasts.
# First, human normal fibroblasts were plated into a 96-well plate at a concentration of 2×10^5 cells/well and primarily cultured in 10% FBS (fetal bovine serum)-containing DMEM medium in conditions of 37° C. and 5% CO2 for 24 hours. After the primary culture, the cells were treated with varying concentrations of the inventive sample. Then, the medium was replaced with a serum-free medium, and the cells were secondarily cultured for 48 hours. After the secondary culture step, 100 μl of MTT solution was added to the medium. Then, the resulting solution was left to stand for 4 hours, and then the medium was removed. 100 μl of dimethyl sulfoxide solution was added to each well and stirred for 20 minutes, and then the absorbance of each well at 540 nm was measured with a microplate reader.
# According to the method of Example 2, the cell proliferation effects of 75% methanol extract of the aril of nutmeg and fragrin A and austobailignan 7 which are isolated and purified thereof were measured. In the MTT assay, a culture medium not treated with the sample was used as a control group and measured for absorbance, and the analysis results are shown in Table 3 below.
# [1] = test system: matrix metalloproteinase-1 (MMP-1); assay: Western blot of matrix metalloproteinase-1 (MMP-1) expression in fibroblasts radiated with UV light; type: cell-based, human; conditions: for inhibition of expression of matrix metalloproteinase-1: UV 20 J/cm^2, given as 'higher than the negative control'; for expression of matrix metalloproteinase-1, result in words: 3, 5 and 10 μM, versus UV 20 J/cm^2 positive control, FIG. 3, FIG. 4; for inhibition at 3 µM / inhibition at 5 µM / inhibition at 10 µM: Homo sapiens, Fibroblast, light or radiation study, compared with UV 20 J/cm^2 treated positive control group, read-out: matrix metalloproteinase-1 (MMP-1) inhibitory activity effect
# Description: Fibroblasts were cultured in a 60-mm dish at a concentration of 2×10^5 cells/ml to a confluence of about 85%. Before UV radiation, the medium was removed, and the cells were washed with PBS to remove a serum component therefrom, and then radiated with UV light at a dose of 20 J/cm^2. After the fibroblast cells were radiated with UV light, the cells were treated with each of the samples and cultured with serum free DMEM for 48 hours.
# In order to measure the expression levels of matrix metalloproteinase-1 (MMP-1), Western blot was used, and the amount of total protein in the medium containing the fibroblasts cultured therein was quantified using the Bradford method.
# The extracted protein was electrophoresed on 10% SDS-polyacrylamide gel, and then transferred to a nitrocellulose membrane. The membrane was blocked with 5% skim milk at room temperature for 1 hour in order to prevent it from being contaminated with other unknown proteins. Primary antibody to matrix metalloproteinase-1 was diluted in a blocking solution at a ratio of 1:1000 and allowed to react with the membrane at room temperature for 2 hours. After the primary antibody reaction, the membrane was washed three times with Tris-buffer saline Tween 20 (TBST) with shaking for 10 minutes each time. Secondary antibodies recognizing the primary antibodies to matrix metalloproteinase-1 was diluted in 5% skim milk at a ratio of 1:1000 and allowed to react with the membrane at room temperature for 1 hour. Then, the membrane was washed three times with tris-buffer saline Tween 20 with shaking for 10 minutes each time in the same manner as in the case of the primary antibody reaction, and then was developed by chemiluminescence.
# [2] = test system: hairless mouse (Skh; HR-1); assay: In vivo anti-wrinkle effect, skin application, skin replica; conditions: applied to skin: 50 μl of 6% (w/v) nutmeg extract or 20 mM macelignan; versus UV positive group; FIG. 7
# Description: (§1) 6-week hairless mouse (Skh; HR-1) have a quarantine period for 1 week before experiment, and cared maintaining temperature with 23±3° C., relative humidity with 50±5° C., and 12 hours of day/night cycle (07:00-19:00/day time). They were fed with feed for mouse, and tap water. UV irradiations were performed 3 times per week in the same time, the amount of the UV irradiations were 50 mJ/cm^2 on 1st week, 100 mJ/cm^2 on 2nd week, 200 mJ/cm^2 on 3rd week, and 250 mJ/cm^2 on 4th and after 4th weeks. The groups were divided into 4 groups. Those were control, UV control, UV/nutmeg and UV/macelignan.
# 50 μl of 6% (w/v) of nutmeg extract and 20 mM macelignan solution were applied for the experiment. For the experiment, nutmeg extract and macelignan were disolved in ethanol:polyethylene glycol (7:3, v/v).
# In FIG. 7, A is the normal group, B is the UV irradiated group, C is the nutmeg applying group, and D is the macelignan applying group.
# [3] = test system: hairless mouse (Skh; HR-1); assay: In vivo anti-wrinkle effect, oral administration, skin replica; conditions: oral: 200 mg/kg nutmeg or 20 mg/kg macelignan; versus UV positive group; FIG. 8
# Description: as §1, with “UV/macelignan. 200 mg/kg of nutmeg and 20 mg/kg of macelignan were administered respectively by oral. For the experiment, nutmeg extract and macelignan were disolved in 0.25% CMC (carboxyl methyl celluose) solution.” for “UV/macelignan.”
# In FIG. 8, A is the normal group, B is the UV irradiated group, C is the nutmeg administering group, and D is the macelignan administering group.
SMILES,Proliferation effect (%) (human normal fibroblasts; 3 μg/ml),Proliferation effect (%) (human normal fibroblasts; 5 μg/ml),Proliferation effect (%) (human normal fibroblasts; 10 μg/ml),inhibition of expression of matrix metalloproteinase-1 ([1]; 10 μM) [%],"expression of matrix metalloproteinase-1, result in words [1]",inhibition at 3 µM [1] [%],inhibition at 5 µM [1] [%],inhibition at 10 µM ([1]; 10 μM) [%],"effect on reducing wrinkle (skin replica), result in words [2]","effect on inhibiting wrinkle (skin replica), result in words [3]",inhibition of expression of matrix metalloproteinase-1 ([1]; 10 μg/ml) [%]
"COc1cc([C@@H]2OC(c3ccc4c(c3)OCO4)[C@@H](C)[C@@H]2C)ccc1O (some centres unmarked) [austobailignan 7, austrobailignan-7]",104,105,110,65,inhibited the expression of matrix metalloproteinase-1 with dose-dependent manners,–,–,–,–,–,–
"C=CCc1cc(OC)c(OC(C)Cc2ccc(O)c(OC)c2)c(OC)c1 (centres unmarked) [fragrin A, 2-(4-allyl-2,6-dimethoxyphenoxy)-1-(4-hydroxy-3-methoxyphenyl)-propane]",101,104,108,65,inhibited the expression of matrix metalloproteinase-1 with dose-dependent manners,–,–,–,–,–,–
C/C=C/c1cc(OC)c2c(c1)[C@@H](C)C(c1ccc3c(c1)OCO3)O2 (some centres unmarked) [licarin E],–,–,–,–,–,35,47,73,–,–,–
COc1cc(C[C@H](C)[C@H](C)Cc2ccc3c(c2)OCO3)ccc1O [macelignan],–,–,–,–,–,31,42,63,inhibited wrinkle,inhibited wrinkle,–
"O=C1O[C@H]([C@@H](O)CO)C(O)=C1O [vitamin-C, reference compound]",–,–,–,20,–,–,–,–,–,–,20
